Data: US10888547B2, “Amorphous and a crystalline form of genz 112638 hemitartrate as inhibitor of glucosylceramide synthase” (Genzyme Corporation, priority 2009, dated 2021)

Assays:
Fabry mice = assay: Monotherapy of Fabry mice, drug in diet; type: in vivo, mouse; settings: 300 mg/kg per day in diet, 11 months
Procedure: For the monotherapy studies, Fabry mice were put on study at 1 month old (prevention model). Treatment groups received Formula (I) Hemitartrate (Genzyme Corp., Cambridge, Mass.) as a component of the pellet food diet. The drug was formulated at 0.15% (w/w) in standard 5053 mouse chow (TestDiet, Richmond, Ind.) and provided ad libitum.
Quantitation of GL-3 was by Tandem Mass Spectrometry essentially as for GL-1.
Hot plate Assay was performed as described previously (Ziegler, R J et al. Molec. Ther. 15(3), 492-500 (2007).
SRT was evaluated in a mouse model of Fabry disease, which is caused by a deficiency of α-galactosidase A activity. Therapy with Formula (I) Hemitartrate started with one month-old Fabry mice and continued until the mice reached one year of age. […] Behavioral tests (i.e., hot-plate assay) and biochemical tests (i.e., urinalysis and GL-3 level analysis in tissues/blood/urine) of the mice were performed bimonthly.

[1] = tested on: Gaucher disease type 1 (GD1) patients; assay: Phase 2 clinical trial in adults with Gaucher disease type 1; type: in vivo, human; settings: 50 or 100 mg bid orally
Procedure: Patients were to have splenomegaly (volume […]) and either thrombocytopenia (platelets 45,000-100,000/mm^3) or anemia (hemoglobin 8-10 g/dl, female; 8-11 g/dl, male). None received enzyme replacement or substrate reduction therapy in the prior 12 months. The composite primary efficacy endpoint is […] (+0.5 g/dl) or platelet count (+15%) after 52 weeks of treatment. Liver volume, chitotriosidase, glucosylceramide are also assessed. Patients continue to be treated and monitored long-term.

[2] = target: T1, glucosylceramide synthase (Homo sapiens, UniProt Q16739); assay: Glucosylceramide synthase inhibition in microsomes from human melanoma A375 cells; type: biochemical
T1 construct: microsomes were prepared from human melanoma A375 cells by sonication and centrifugation; endogenous in cells; host or cells: human melanoma A375 cells (microsomes)
T1 sequence (Q16739 1-394): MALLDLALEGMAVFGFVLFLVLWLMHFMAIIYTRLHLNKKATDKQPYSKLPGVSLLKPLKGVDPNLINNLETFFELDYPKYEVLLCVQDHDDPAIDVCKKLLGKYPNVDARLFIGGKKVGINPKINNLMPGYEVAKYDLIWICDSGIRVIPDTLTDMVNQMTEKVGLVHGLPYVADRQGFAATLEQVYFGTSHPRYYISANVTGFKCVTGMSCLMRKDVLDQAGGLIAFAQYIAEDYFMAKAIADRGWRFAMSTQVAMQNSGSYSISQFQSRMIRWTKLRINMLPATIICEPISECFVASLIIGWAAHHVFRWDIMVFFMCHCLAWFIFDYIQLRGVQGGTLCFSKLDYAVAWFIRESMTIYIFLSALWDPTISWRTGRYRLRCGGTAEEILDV
Procedure: An alternative assay for activity measured inhibition of glucosylceramide synthase in human cell derived microsomes. In this assay, microsomes were prepared from human melanoma A375 cells by sonication and centrifugation. […] Following the incubation, fluorescently labeled glucosylceramide and unreacted ceramide were separated and quantitated by reverse-phase HPLC and fluorescence detection.

α-glucosidase I and II = assay: α-Glucosidase I and II specificity assay; type: biochemical
[3] = Approximate solubility in organic solvents from solvent addition; type: physicochemical; settings: organic solvent or mixture, thermodynamic from solid, room temperature (20-25° C.)
Procedure: A weighed sample (usually 20 mg) was treated with aliquots of the test solvent. Aliquots were typically 100-200 μL. Between solvent additions, the mixture was shaken or sonicated. When the solids dissolved, as judged by visual inspection, the solution was allowed to evaporate under ambient conditions in an open vial covered with aluminum foil perforated with pinholes. Solubilities were estimated from these experiments based on the total solvent added to obtain a clear solution.

With CCCCCCCC(=O)N[C@H](CN1CCCC1)[C@H](O)c1ccc2c(c1)OCCO2 [Formula (I) Hemitartrate] the “presentation of insensitivity to an aversive heat stimulus (hot-plate assay)” value (Fabry mice) was “later presentation”, the “urinalysis factors (urine volume, creatinine and sodium levels)” value (Fabry mice) was “prevention of deterioration” and the “tolerability and safety profile” value [1] was “well tolerated”. For the same compound, the “composite primary endpoint met (hemoglobin +0.5 g/dl or platelet count +15%)” value ([1]; 52 weeks) was 19 of the 20, the mean (SD) change from baseline in chitotriosidase ([1]; Week 52) was -49.9% and the mean (SD) change from baseline in liver volume (multiples of normal) ([1]; Week 52) was -15.8%. For the same compound, the “mean (SD) change from baseline in platelet count” value ([1]; Week 52) was “+43.6% (137.59%)”, the mean (SD) change from baseline in spleen volume (multiples of normal) ([1]; Week 52) was -40.2% and the related adverse events ([1]; all mild and transient) was “Seven related adverse events in 6 patients”. The “time after which plasma glucosylceramide levels normalized” value ([1]; all patients) was 4 weeks, the “differential in concentration required to inhibit glucosylceramide synthase compared to any of the other enzymes tested” value [2] was “approximately 40,000” and the “inhibition of α-glucosidase I and II” value (α-glucosidase I and II; concentrations up to 2500 μM) was “No detectable inhibition”. For the same compound, the IC50 (α-glucosidase I and II; read-out: Enzyme specificities, IC50: α-Glucosidase I and II) was greater than 2500 µM, the solubility ([3]; Acetone) was less than 5000 µg/mL and the solubility ([3]; Acetonitrile) was less than 5000 µg/mL. It also gave a solubility ([3]; Dichloromethane) of 100000 µg/mL, a solubility ([3]; Ethanol) of 29000 µg/mL and a solubility ([3]; Ethyl Acetate) of less than 5000 µg/mL. The solubility ([3]; Isopropyl alcohol) was less than 5000 µg/mL, the solubility ([3]; Methanol) was greater than 200000 µg/mL and the solubility ([3]; Methyl t-butyl ether (TBME)) was less than 5000 µg/mL. The solubility ([3]; Tetrahydrofuran (THF)) was less than 5000 µg/mL, the solubility ([3]; Toluene) was less than 5000 µg/mL and the solubility ([3]; p-Dioxane) was less than 5000 µg/mL.
